From US11274102B2, “Compounds useful in HIV therapy” (GLAXOSMITHKLINE INTELLECTUAL PROPERTY DEVELOPMENT LIMITED, priority 2017, dated 2022)
Where two headings read alike, the source gives them in different places.

How the values were obtained:
[1] = tested on: HIV-infected Jurkat cell clones (C16, 115 and N6); experiment: Jurkat HIV Latency assay (HIV-expressed luciferase); format: cell-based; settings: Homo sapiens, averaged potency for HIV latency disruption in Jurkat HIV cells, 24 hours incubation, read-out: Jurkat Mean PXC50 (converted)
Procedure: For the Jurkat HIV Latency assay, compounds were dissolved and titrated in DMSO and diluted 100-fold in assay medium (RPMI-1640 containing 10% fetal bovine serum) containing an equal mixture of three HIV-infected Jurkat cell clones (C16, 115 and N6) at a total concentration of 1-2×10^5 cells/mL. To test stability, compounds are pre-incubated in assay medium for 48 hours at 37° C. prior to adding cells (48 hr EC50). Compounds that induce HIV expression result in a dose-dependent production of the HIV expressed luciferase enzyme. After the incubation of cells with compound for 24 hours at 37° C., HIV activation and cytotoxicity are determined by measuring luminescence after the addition of Promega Steady-Glo® Luciferase Assay reagent or CellTiter-Glo® Luminescent Cell Viability Assay reagent, respectively.

[2] = tested on: CD4+ T cells from HIV-infected donors; experiment: HIV latency disruption in primary patient CD4+ T cells (HIV gag RNA by RT-qPCR); format: cell-based; settings: Homo sapiens
Procedure: For the assessment of compound activity in primary patient cells, PBMCs were obtained by continuous-flow leukapheresis from HIV-infected, antiretrovirally-treated, aviremic patients whose plasma HIV-1 RNA was less than 50 copies/mL at the time of collection. PBMCs were isolated by Ficoll-Hypaque density gradient centrifugation and cryopreserved in the vapor phase of liquid nitrogen. On the day of assay, cells were rapidly thawed to room temperature in a 37° C. water bath and total CD4+ T cells were isolated by negative selection (Stemcell Technologies). CD4+ T cells were reconstituted in assay medium (RPMI-1640 containing 10% fetal bovine serum, 10 ug/mL Fuzeon® and 200 nM Rilpivirin) and 5×10^6 were plated onto 2 mL 96-well polypropylene plates. Compounds were dissolved in DMSO, diluted 1:250 into assay medium and then titrated into assay medium supplemented with 0.4% DMSO with a minimum of 3 biological replicates per each treatment condition. Compound titrations were transferred to the cells and the assay plates were incubated at 37° C. for 24 hours. Following incubation, the assay plates were centrifuged at 400×g for 10 minutes and the cell-free supernatants were removed and discarded. The nucleic acid from the cell pellets were extracted, purified and segregated into RNA and DNA components using AllPrep DNA/RNA 96-well kits (Qiagen). HIV reactivation was quantified from the RNA fraction by one-step RT-qPCR (applied Biosystems) using primers and probe that target gag messenger RNA. HIV copies were calculated based on extrapolations from standard curves generated with known quantities of synthetic target HIV gag DNA in the same PCR reaction plate as the samples. A minimum of 3 technical RT-qPCR replicates were run for each biological replicate.
Data were normalized and modeled accordingly raw data were used to calculate the absolute number of HIV-gag RNA copies per million CD4+ T cells, with the value for each compound and concentration based on the averaged value of 3 to 5 biological replicates, with each biological replicate value being the average of 3 technical RT-qPCR replicates.
The dose-response curve was fit to an unconstrained four parameter logistic equation, defined as: y=Vmax{1−[x^n÷(K^n+x^n)]}+Y2 • Where: • x=compound concentration • y=normalized response data • Vmax=upper bound of response • K=EC50 • Y2=lower bound or baseline of response • n=hill coefficient
An example of dose-response HIV latency disruption in vitro is presented in FIG. 1 comparing the compound of invention (Example-1) to the compound of prior art (Compound-A) in peripheral blood CD4+ T cells from a HIV-infected fully-suppressed subject. […]

[3] = average potency from multiple donors, CD4+ T cells from HIV-infected donors, 24 hours, gag RNA, read-out: CD4 Mean PXC50 (converted)

Structure (SMILES)	EC50 [1]	EC50 ([2]; FIG. 1, peripheral blood CD4+ T cells from a HIV-infected fully-suppressed subject, cell-associated HIV gag RNA, 4-parameter logistic regression, read-out: EC50)	EC50 [2, 3]
O=C1CCCN1Cc1nnc(Sc2ncnc3occ(-c4ccc(Cl)cc4)c23)o1 [Example 1, 1-((5-((5-(4-chlorophenyl)furo[2,3-d]pyrimidin-4-yl)thio)-1,3,4-oxadiazol-2-yl)methyl)pyrrolidin-2-one]	632 nM	47 nM	35.7 nM
O=C1CCCN1Cc1nnc(Sc2ncnc3occ(-c4ccco4)c23)o1 [Example 4, 1-((5-((5-(furan-2-yl)furo[2,3-d]pyrimidin-4-yl)thio)-1,3,4-oxadiazol-2-yl)methyl)pyrrolidin-2-one]	491 nM		15 nM
O=C1CCCN1Cc1nnc(Sc2ncnc3occ(-c4cccs4)c23)o1 [Example 6, 1-((5-((5-(thiophen-2-yl)furo[2,3-d]pyrimidin-4-yl)thio)-1,3,4-oxadiazol-2-yl)methyl)pyrrolidin-2-one]	902 nM		
Cc1ccc(-c2coc3ncnc(Sc4nnc(CN5CCCC5=O)o4)c23)s1 [Example 7, 1-((5-((5-(5-methylthiophen-2-yl)furo[2,3-d]pyrimidin-4-yl)thio)-1,3,4-oxadiazol-2-yl)methyl)pyrrolidin-2-one]	625 nM		390 nM
